Results: publication PMC9643853, “Synthesis and evaluation of 3-alkynyl-5-aryl-7-aza-indoles as broad-spectrum antiviral agents” (Frontiers in Chemistry, 2022)

Assays:
RSV-A [1] = assay: RSV-A cytopathic effect (CPE) reduction assay in HEp-2 cells, MTS read-out; assay type: cell-based, human respiratory syncytial virus, RSV-A strain Long
VEEV (TC-83) = assay: microbe, parasite or virus in culture; assay type: cell-based; conditions: Venezuelan equine encephalitis virus, U-87 MG, 18 h, read-out: VEEV EC50
in vitro [2] = conditions: human
in vitro [3] = conditions: human; remark: listed apart in the source
RSV-A [4] = assay: Anti-RSV-A activity in A549 cells, viral RNA in supernatant by RT-qPCR; assay type: cell-based, RSV-A strain Long; conditions: human respiratory syncytial virus, A549, 120 h, read-out: RSV-A EC50 (A549, viral RNA levels)
AAK1 = AAK1 (Homo sapiens, UniProt Q2M2I8); assay: LanthaScreen Eu Kinase Binding Assay for AAK1
SARS-CoV-2 = assay: microbe, parasite or virus in culture; assay type: cell-based, SARS-CoV-2 BetaCov/Belgium/GHB-03021/2020; conditions: Severe acute respiratory syndrome coronavirus 2, 96 h, read-out: SARS-CoV-2 EC50
in vitro [5] = conditions: African green monkey
[6] = human respiratory syncytial virus, HEp-2, 96 h; read-out: RSV-A EC50
[7] = HEp-2 cells, inhibition of virus-induced cytopathogenicity by 50%, MOI 0.01, 4 days; read-out: RSV-A EC50

AAK1, sequence (Q2M2I8 whole entry): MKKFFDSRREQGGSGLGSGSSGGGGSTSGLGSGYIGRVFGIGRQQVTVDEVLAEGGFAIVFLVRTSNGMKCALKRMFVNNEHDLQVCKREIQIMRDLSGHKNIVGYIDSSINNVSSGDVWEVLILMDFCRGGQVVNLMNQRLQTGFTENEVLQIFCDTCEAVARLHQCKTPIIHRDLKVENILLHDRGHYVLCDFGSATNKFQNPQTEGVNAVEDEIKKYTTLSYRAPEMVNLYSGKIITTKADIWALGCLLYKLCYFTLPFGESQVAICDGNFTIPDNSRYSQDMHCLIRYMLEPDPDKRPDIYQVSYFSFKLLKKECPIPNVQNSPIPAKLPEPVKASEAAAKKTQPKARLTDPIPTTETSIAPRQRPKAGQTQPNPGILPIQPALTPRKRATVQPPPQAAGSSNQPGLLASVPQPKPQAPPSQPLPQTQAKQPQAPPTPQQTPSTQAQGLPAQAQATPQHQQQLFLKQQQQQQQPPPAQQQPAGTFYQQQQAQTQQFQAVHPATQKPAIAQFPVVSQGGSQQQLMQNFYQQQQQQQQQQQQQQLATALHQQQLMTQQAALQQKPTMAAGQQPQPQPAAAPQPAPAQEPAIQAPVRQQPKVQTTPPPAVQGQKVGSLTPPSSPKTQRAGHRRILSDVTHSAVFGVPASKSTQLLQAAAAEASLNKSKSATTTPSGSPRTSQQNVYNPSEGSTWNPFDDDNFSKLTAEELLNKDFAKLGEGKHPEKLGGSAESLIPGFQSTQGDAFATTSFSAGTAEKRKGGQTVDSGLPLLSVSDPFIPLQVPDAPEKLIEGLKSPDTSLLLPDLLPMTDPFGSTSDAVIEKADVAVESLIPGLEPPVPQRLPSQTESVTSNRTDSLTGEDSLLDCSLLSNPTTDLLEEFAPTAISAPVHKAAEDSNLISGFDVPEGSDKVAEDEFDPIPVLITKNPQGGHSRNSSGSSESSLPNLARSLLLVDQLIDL

Compound	EC50 (RSV-A [1]; [6])	EC50 (VEEV (TC-83))	CC50 at 4 days (in vitro [2])	CC50 (in vitro [3])	other results
COc1ccc(-c2cnc3[nH]cc(C#Cc4cccnc4)c3c2)cc1 [Compound 4a, 5-(4-Methoxyphenyl)-3-(pyridin-3-ylethynyl)-1H-pyrrolo[2,3-b]pyridine]	0.048 ± 0.037 µM	6.81 ± 1.87 µM	0.24 ± 0.23 µM	> 10 µM	
COc1cccc(-c2cnc3[nH]cc(C#Cc4cccnc4)c3c2)c1 [Compound 4b]	0.67 ± 0.43 µM	> 10 µM	6 ± 5.66 µM	> 10 µM	
COc1ccccc1-c1cnc2[nH]cc(C#Cc3cccnc3)c2c1 [Compound 4c]	0.69 ± 0.32 µM	5.34 ± 1.87 µM	6 ± 5.66 µM	> 10 µM	
COc1cc(OC)cc(-c2cnc3[nH]cc(C#Cc4cccnc4)c3c2)c1 [Compound 4d]		> 10 µM	> 50 µM	> 10 µM	selectivity index (SI) (RSV-A [1]; CC50 HEp-2 / EC50 RSV-A): 90; EC50 (RSV-A [1]; human respiratory syncytial virus, HEp-2, 96 h, read-out: RSV-A EC50): 0.55 ± 0.41 µM; EC50 (RSV-A [4]): 0.05 µM; AAK1 affinity (in words) (AAK1): low nanomolar AAK1 affinity; IC50 (AAK1): 0.0062 µM
COc1cc(-c2cnc3[nH]cc(C#Cc4cccnc4)c3c2)cc(OC)c1OC [Compound 4e]	0.71 ± 0.55 µM	1.5 ± 0.17 µM	1.2 ± 1.13 µM	> 10 µM	
COCCOc1ccc(-c2cnc3[nH]cc(C#Cc4cccnc4)c3c2)cc1 [Compound 4f]	30 ± 28.3 µM	> 10 µM	> 50 µM	> 10 µM	anti-RSV activity (in words) (RSV-A [1]; HEp-2 cells): completely devoid of anti-RSV activity
COc1cc(-c2cnc3[nH]cc(C#Cc4cccnc4)c3c2)ccn1 [Compound 4g]	2.71 ± 1.01 µM	> 10 µM	> 50 µM	> 10 µM	
Clc1cccc(-c2cnc3[nH]cc(C#Cc4cccnc4)c3c2)c1 [Compound 4h]	2.89 ± 2.24 µM	> 10 µM	> 50 µM	> 10 µM	
Fc1ccc(-c2cnc3[nH]cc(C#Cc4cccnc4)c3c2)cc1 [Compound 4i]	2.23 ± 1.32 µM	9.05 ± 1.03 µM	> 50 µM	> 10 µM	
C(#Cc1c[nH]c2ncc(-c3ccoc3)cc12)c1cccnc1 [Compound 4j]	47.8 ± 3.07 µM	> 10 µM	> 50 µM	> 10 µM	anti-RSV activity (in words) (RSV-A [1]; HEp-2 cells): completely devoid of anti-RSV activity
C(#Cc1c[nH]c2ncc(-c3ccsc3)cc12)c1cccnc1 [Compound 4k]	4.83 ± 1.44 µM	> 10 µM	> 50 µM	> 10 µM	
COc1cc(OC)cc(-c2cnc3[nH]cc(C#Cc4ccccn4)c3c2)c1 [Compound 5a]	0.08 µM	> 10 µM	0.24 ± 0.23 µM	> 10 µM	
COc1cc(OC)cc(-c2cnc3[nH]cc(C#Cc4ccccc4)c3c2)c1 [Compound 5b]	1.59 ± 0.59 µM	> 10 µM	6 ± 4.35 µM	> 10 µM	
COc1cc(OC)cc(-c2cnc3[nH]cc(C#Cc4ccc(F)cc4)c3c2)c1 [Compound 5c]	0.36 ± 0.064 µM	6.27 ± 0.93 µM	1.66 ± 0.89 µM	> 10 µM	
COc1cc(OC)cc(-c2cnc3[nH]cc(C#Cc4cccc(Cl)c4)c3c2)c1 [Compound 5d]	16.3 µM	6.13 ± 0.94 µM	> 50 µM	> 10 µM	loss of activity against RSV-A relative to compound 4d (RSV-A [1]; HEp-2 cells): 30 fold
COc1cccc(C#Cc2c[nH]c3ncc(-c4cc(OC)cc(OC)c4)cc23)c1 [Compound 5e]	2.75 ± 0.24 µM	6.29 ± 2.71 µM	> 50 µM	> 10 µM	loss of activity against RSV-A relative to compound 4d (RSV-A [1]; HEp-2 cells): 5 fold
COc1cc(OC)cc(-c2cnc3[nH]cc(C#Cc4ccsc4)c3c2)c1 [Compound 5f]	0.31 ± 0.13 µM	4.3 ± 0.47 µM	1.84 ± 0.95 µM	> 10 µM	
COc1cc(OC)cc(-c2cnc3c(c2)c(C#Cc2cccnc2)cn3C)c1 [Compound 7a]	1.65 ± 0.5 µM	> 10 µM	30 ± 28.3 µM	> 10 µM	AAK1 affinity (in words) (AAK1): no AAK1 affinity; IC50 (AAK1): > 10 µM
CCn1cc(C#Cc2cccnc2)c2cc(-c3cc(OC)cc(OC)c3)cnc21 [Compound 7b]	> 2 µM	3.92 ± 1.15 µM	2 µM	> 10 µM	
COc1cc(OC)cc(-c2cnc3c(c2)c(C#Cc2cccnc2)cn3CC(C)C)c1 [Compound 7c]	> 10 µM	> 10 µM	10.7 ± 0.98 µM	> 10 µM	
COc1cc(OC)cc(-c2cnc3c(c2)c(C#Cc2cccnc2)cn3Cc2ccccc2)c1 [Compound 7d]	4.88 ± 0.28 µM	> 10 µM	> 50 µM	> 10 µM	

Compound	EC50 (RSV-A [1]; [6])	EC50 (VEEV (TC-83))	CC50 at 4 days (in vitro [2])	CC50 (in vitro [3])	other results
O=C(c1cccc(-c2cnc3[nH]cc(C#Cc4cccnc4)c3c2)c1)N1CCCC1 [Compound 8L]	1 ± 0.94 µM	> 10 µM	5.71 ± 0.044 µM	> 10 µM	EC50 (SARS-CoV-2): 0.96 ± 0.32 µM; CC50 (in vitro [5]): 6.46 ± 1.75 µM
CNC(=O)c1ccc(-c2cnc3[nH]cc(C#Cc4cccnc4)c3c2)cc1 [Compound 8a]	0.89 ± 0.4 µM	2.72 ± 0.93 µM	6 ± 5.66 µM	> 10 µM	
O=C(NC1CC1)c1ccc(-c2cnc3[nH]cc(C#Cc4cccnc4)c3c2)cc1 [Compound 8d]	4.63 ± 3.71 µM	> 10 µM	50 µM	> 10 µM	
CC(C)CNC(=O)c1cccc(-c2cnc3[nH]cc(C#Cc4cccnc4)c3c2)c1 [Compound 8g]	0.66 ± 0.22 µM	3.75 ± 1.08 µM	3.38 ± 1.01 µM	> 10 µM	EC50 (SARS-CoV-2): 0.76 ± 0.46 µM; CC50 (in vitro [5]): > 85 µM
COCCNC(=O)c1cccc(-c2cnc3[nH]cc(C#Cc4cccnc4)c3c2)c1 [Compound 8h]	0.72 ± 0.46 µM	2.48 ± 1.27 µM	17.3 ± 7.88 µM	> 10 µM	EC50 (SARS-CoV-2): 2.13 ± 1.91 µM; CC50 (in vitro [5]): > 100 µM
O=C(NCc1ccccc1)c1cccc(-c2cnc3[nH]cc(C#Cc4cccnc4)c3c2)c1 [Compound 8i]	2.71 ± 2.88 µM	1.29 ± 1.41 µM	> 50 µM	> 10 µM	
CN(C)C(=O)c1cccc(-c2cnc3[nH]cc(C#Cc4cccnc4)c3c2)c1 [Compound 8j]	3.65 ± 2.28 µM	4.57 ± 4.87 µM	> 50 µM	> 10 µM	
CCN(CC)C(=O)c1cccc(-c2cnc3[nH]cc(C#Cc4cccnc4)c3c2)c1 [Compound 8k]	0.97 ± 0.18 µM	> 10 µM	4.04 ± 0.14 µM	> 10 µM	EC50 (SARS-CoV-2): 10.2 ± 0.14 µM; CC50 (in vitro [5]): 88.5 ± 1.41 µM
O=C(c1cccc(-c2cnc3[nH]cc(C#Cc4cccnc4)c3c2)c1)N1CCOCC1 [Compound 8m]	3.42 ± 4.4 µM	> 10 µM	10.9 ± 0.69 µM	> 10 µM	
O=C(NC1CC1)c1cccc(-c2cnc3[nH]cc(C#Cc4ccc(F)nc4)c3c2)c1 [Compound 9a]	1.76 ± 0.91 µM	6.54 ± 1.21 µM	> 50 µM	> 10 µM	loss in anti-RSV activity relative to compound 8f (RSV-A [1]; HEp-2 cells): 10 fold
COc1cncc(C#Cc2c[nH]c3ncc(-c4cccc(C(=O)NC5CC5)c4)cc23)c1 [Compound 9b]	0.24 ± 0.057 µM	1.39 ± 0.2 µM	22.2 ± 3.68 µM	8.99 ± 1.6 µM	
Cc1cncc(C#Cc2c[nH]c3ncc(-c4cccc(C(=O)NC5CC5)c4)cc23)c1 [Compound 9c]	0.18 ± 0.085 µM	1.8 ± 0.32 µM	> 50 µM	> 10 µM	EC50 (SARS-CoV-2): 1.82 ± 0.83 µM; CC50 (in vitro [5]): > 100 µM
O=C(NC1CC1)c1cccc(-c2cnc3[nH]cc(C#Cc4ccccc4)c3c2)c1 [Compound 9d]	0.82 ± 0.22 µM	> 10 µM	> 50 µM	> 10 µM	
O=C(NC1CC1)c1cccc(-c2cnc3[nH]cc(C#Cc4ccsc4)c3c2)c1 [Compound 9e]	0.51 ± 0.16 µM	> 10 µM	> 50 µM	> 10 µM	
O=C(NC1CC1)c1cccc(-c2cnc3[nH]cc(C#Cc4cccc(Cl)c4)c3c2)c1 [Compound 9f]	> 50 µM	6.7 ± 2.79 µM	> 50 µM	> 10 µM	anti-RSV activity (in words) (RSV-A [1]; HEp-2 cells): inactive
COc1cccc(C#Cc2c[nH]c3ncc(-c4cccc(C(=O)NC5CC5)c4)cc23)c1 [Compound 9g]	0.1 ± 0.19 µM	5.27 ± 1.01 µM	> 20 µM	> 10 µM	
N#C[C@@]1(c2ccc3c(N)ncnn23)O[C@H](CO)[C@@H](O)[C@H]1O [GS-441524, reference compound]					EC50 (SARS-CoV-2): 0.7 ± 0.07 µM
CN1CCN(C)/C(=N/c2ccc([N+](=O)[O-])cc2C(=O)Nc2ccccc2)C1 [ML-336, (E)-2-((1,4-Dimethylpiperazin-2-ylidene)amino)-5-nitro-N-phenylbenzamide, reference compound]		0.04 ± 0.01 µM		> 10 µM	
NC(=O)c1ncn([C@@H]2O[C@H](CO)[C@@H](O)[C@H]2O)n1 [Ribavirin, reference compound]	3.11 ± 1.85 µM		> 50 µM		
Cc1ccc(CCCO)c(NCc2ccc3nc(NCCCN4CCOCC4)n(Cc4nc(C)ccc4O)c3c2)c1 [TMC353121, reference compound]					EC50 (RSV-A [1]; [7]): 0.0013 ± 0.0008 µM
dextran sulfate sodium salt [DS-10000, reference compound]					EC50 (RSV-A [1]; [7]): 0.068 ± 0.045 µM
